Where a name gives a salt, the structure may show the parent alone.
Tests used:
[1] = test system: Albugo laibachii; assay: Albugo laibachii growth on A. thaliana after syringe infiltration, quantified via qPCR; type: in vivo; conditions: for inhibition at 100 µM: Albugo laibachii, in Arabidopsis thaliana, qPCR at 7 dpi, A. thaliana; for inhibition of A. laibachii growth (in words): Table 4, qPCR at 7 dpi, p 5 0.05
[2] = test system: Rhodococcus sp.; assay: Bacterial liquid culture growth curves (OD600), Rhodococcus sp.; conditions: 18.5 h, read-out: Absolute growth rate relative to mock control, Rhodococcus sp.
[3] = test system: Albugo candida; assay: Albugo candida growth on A. thaliana after syringe infiltration, quantified via qPCR; type: in vivo; conditions: for inhibition at 100 µM: Albugo candida, in Arabidopsis thaliana, qPCR at 7 dpi, A. thaliana; for inhibition of A. candida growth (in words): Table 4, qPCR at 7 dpi
[4] = test system: Albugo laibachii; assay: Albugo laibachii on A. thaliana, syringe infiltration of compound, visual scoring of disease severity; type: in vivo; conditions: in Arabidopsis thaliana, 100 μM in 1% DMSO syringe infiltrated into adult A. thaliana, visually scored at nine dpi, read-out: A. laibachii Inhibitory effect
Experimental: (§1) A. thaliana seeds were stratified on moist soil (Einheitserde type A240, Stender, Germany) for seven days at 4° C. in darkness, before transfer into growth chambers with short day conditions (10 h light, 14 h darkness, 23/20° C., 60% humidity). After three weeks, seedlings were singularised and grown for three weeks further. After six weeks, A. thaliana plants were used for experiments and after infection they were transferred into SANYO (Panasonic MLR-352, Japan) growth cabinets (10 h light, 14 h darkness, 22/16° C.). Potato plants were grown from tubers by covering them with soil (Einheitserde type A240, Stender, Germany). The leaves of adult plants (˜4-6 weeks old) were cut off and kept in a moist environment for infection assays.
(§2) For regular Albugo sp. infections A. thaliana Ws-0 was sprayed with an Albugo sp. conidiospores solution. These spore solutions were prepared by harvesting sporulating leaf material at 14 days post infection (dpi) and adding water for rehydration of the spores. Spore solutions were hold on ice for ˜1 h, before filtering through miracloth (Merck Millipore, Germany) to remove dirt. Spores were counted and the solutions diluted to 22.2×10^4 conidiospores/ml. Albugo sp. spore solutions were sprayed uniformly on A. thaliana leaves (4.5 ml per six plants) using an airbrush gun. During spraying, plants were placed in a plastic bag and afterwards transferred into a cold room to incubate at 4° C. in darkness (˜16 h). The next morning, plants were transferred into plant growth cabinets, but left in clear bags to keep humidity high, which supports Albugo sp. infections. ˜24 h later plants were unbagged and further incubated under normal plant growth conditions.
(§3) Afterwards, the plants were kept in the lab for ˜1 h to let the leaves equilibrate again. The infiltrated plants were infected with Albugo sp., following the above-mentioned protocol. At 7 dpi, infiltrated leaves were phenotypically scored and harvested. The samples were frozen in liquid nitrogen and stored at −80° C. until DNA extraction for growth quantification via qPCR. For experiment 4, A. candida spore solutions were prepared as before and mixed with 10 mM stock solution of the test compound (100 μM end conc.). The mixture of spore solution and test compound was sprayed and incubated as for experiment 2 and 3.
(§4) • Fungicidal activity against other oomycetes was tested using isolates of the obligate biotrophic pathogen genus Albugo on Arabidopsis thaliana. The test compounds, 100 μM in 1% DMSO, were syringe infiltrated into adult A. thaliana and subsequently sprayed with aqueous spore solutions of Albugo laibachii or A. candida. In primary screenings, disease severity was visually screened and scored at nine days post infection (dpi) (Table 2+3).

[5] = test system: Pseudomonas syringae pv. tomato (Pto) DC3000; assay: Bacterial liquid culture growth curves (OD600), Pto DC3000; conditions: 18.5 h, read-out: Absolute growth rate relative to mock control, Pto DC3000
[6] = test system: Phytophthora infestans; assay: whole plant or invertebrate; type: in vivo; conditions: in Solanum tuberosum, 120 h, read-out: P. infestans % inhibition
[7] = test system: P. infestans; assay: whole plant or invertebrate; type: in vivo; conditions: Phytophthora infestans, in Solanum tuberosum, read-out: P. infestans % inhibition
[8] = test system: Phakopsora pachyrhizi; assay: Soybean rust on soybean (Glycine max) leaves, syringe infiltration of compound, visual scoring; type: in vivo; conditions: 100 μM in 1% DMSO syringe infiltrated into adult G. max, visually scored at nine dpi, read-out: P. pachyrhizi Inhibitory effect
Experimental: Soybean plants were grown from pregerminated soybeans by putting them 1 cm deep into soil (Einheitserde type A240, Stender, Germany). Plants were grown in growth cabinets (16h light at 400 μM/m^2s and 22-24° C.-8h dark at 21-22° C.). 14 days after soil planting, plants were used for infection and experiments. Following inoculation with rust spores, plants were transferred back to growth cabinet prior to symptom screening.
Infiltration was always done through somata at the lower site of the leaf under light conditions to ensure stomata are open. Afterwards, the plants were kept in the growth cabinet for ˜1 h to let the leaves equilibrate again. The infiltrated plants were inoculated with Soybean rust spores using an airbrush and 0.01% Tween20 to ensure homogenous wetting. Plants were afterwards incubated for 24h in the dark at 24° C. and 100% humidity. At 9 dpi, infiltrated leaves were phenotypically scored.
• Fungicidal activity against Soybean rust was tested using a highly virulent stain of Phakopsora pachyrhizi and commercially available Soybeans.
The test compounds, […] 100 μM in 1% DMSO, were syringe infiltrated into adult G. max plants and subsequently sprayed with aqueous spore solutions and 0.01% Tween. In primary screenings, disease severity was visually screened and scored at nine days post infection (dpi) (Table 8).

[9] = test system: Albugo candida; assay: Albugo candida on A. thaliana, syringe infiltration of compound, visual scoring of disease severity; type: in vivo; conditions: in Arabidopsis thaliana, read-out: A. candida Inhibitory effect
Experimental: as §1, §2, §3, §4

[10] = test system: A. candida; assay: A. candida growth on A. thaliana after spray application of spore solution mixed with compound, qPCR; type: in vivo, Albugo candida; conditions: for inhibition at 100 µM: Candida, in Arabidopsis thaliana, spray application of spore solution mixed with 100 μM compound in 1% DMSO, qPCR at 7 dpi, A. thaliana

Row | SMILES | inhibition at 100 µM [1] [%] | activity at 100 µM [2] [%] | inhibition at 100 µM [3] [%] | inhibition at 100 µM [4] [%] | activity at 100 µM [5] [%] | inhibition at 100 µM [6] [%] | inhibition at 100 µM [7] [%] | inhibition at 100 µM [8] [%] | inhibition at 100 µM [9] [%] | inhibition of A. candida growth (in words) [3] | inhibition at 100 µM [10] [%] | growth inhibition of A. candida (in words) ([10]; Table 5, spore solution mixed with compound, sprayed) | inhibition of A. laibachii growth (in words) [1]
1 | Oc1ccc(-c2c[nH]c(-c3ccc(O)c(O)c3)n2)cc1O [Compound 28, 2,4-Bis(3,4-dihydroxyphenyl)-1H-imidazole hydrobromide] | 4 | 71 | 49 | 30 to 70 | 49 | 30 | – | – | – | – | – | – | –
2 | O=C(c1ccc(-c2cc(-c3ccc(F)cc3)[nH]n2)cc1)N1CCOCC1 [Compound 143, {4-[5-(4-Fluorophenyl)-1H-pyrazol-3-yl]phenyl}(morpholin-4-yl)methanone] | – | – | – | – | – | – | 94 | 5 to 30 | – | – | – | – | –
3 | Br.Oc1ccc(-c2noc(-c3ccc(O)c(O)c3)n2)cc1O [Compound 24, 3,5-Bis(3,4-Dihydroxyphenyl)-1,2,4-oxadiazole hydrobromide] | 16 | 19 | 80 | – | 95 | 80 | – | – | > 70 | strong inhibition | 41 | – | –
4 | Br.Oc1ccc(-c2cc(-c3ccc(Cl)cc3)[nH]n2)cc1 [Compound 36, 5-(4-Chlorophenyl)-3-(4-hydroxyphenyl)-1H-pyrazole hydrobromide] | – | 9 | – | – | 104 | 95 | 85 | – | > 70 | – | 94 | strong growth inhibition | –
5 | COc1ccc(-c2cc(-c3ccc(OC)c(OC)c3)on2)cc1 [Compound 19, 5-(3,4-Dimethoxyphenyl)-3-(4-methoxyphenyl)isoxazole] | 59 | 58 | 70 | – | 95 | 26 | – | – | > 70 | strong inhibition | – | – | significantly inhibited
6 | Oc1ccc(-c2cc(-c3cc(O)c(O)c(O)c3)n[nH]2)cc1O [Compound 5, 5-(3,4-Dihydroxyphenyl)-3-(3,4,5-trihydroxyphenyl)-1H-pyrazole] | – | 64 | – | – | 40 | 89 | – | – | > 70 | – | – | – | –
7 | COc1ccc(-c2cc(-c3ccc(OC)c(OC)c3)on2)cc1OC [Compound 43, 3,5-Bis(3,4-dimethoxyphenyl)isoxazole] | – | 75 | – | – | 114 | – | – | – | > 70 | – | – | – | –
8 | CCc1ccc(-c2cc(-c3cccc(NC(=O)[C@@H](N)CO)c3)[nH]n2)cc1 [Compound 129, (2S)-2-Amino-N-{3-[3-(4-ethylphenyl)-1H-pyrazol-5-yl]phenyl}-3-hydroxypropanamide hydrochloride] | – | – | – | – | – | – | 97 | > 70 | – | – | – | – | –
9 | Oc1ccc(-c2cc(-c3ccc(O)c(O)c3)on2)cc1 [Compound 22, 5-(3,4-Dihydroxyphenyl)-3-(4-hydroxyphenyl)isoxazole] | 49 | – | 53 | > 70 | – | 63 | – | – | – | strong inhibition | – | – | significantly inhibited

— patent US20250228242A1 (priority 2021, published 2025)
